In brackets after ≈: the same amount, converted by molar mass. Several values for one entry are separate records, joined by “and”; a condition that tells them apart may be missing. Identical values can stand only once.
Key:
[1] = Solubility in 20 mM acetic, citric and L-aspartic aqueous media as a function of pH (Example 14); assay type: physicochemical
[2] = Aqueous solubility with glutamic acid and glucuronic acid (Example 15); assay type: physicochemical; conditions: aqueous buffer, thermodynamic from solid, adjusted pH 4.1, filtered supernatant
Text: Aqueous solubility of Compound A with glutamic acid and glucuronic acid were explored in Example 15.

[3] = pHmax / Ksp determination with L-aspartic acid (Example 16); assay type: physicochemical; conditions: for solubility: L-aspartic acid solution, thermodynamic from solid, >110 hr stirring at RT, read-out: Drug Solubility; for solubility / pH max: L-aspartic acid; for pH max: pHmax = pKa + log (S0/√Ksp)
Description: Compound A solubility was separately determined by controlling the mole ratio of L-aspartic acid relative to drug in Example 16. The concentrations of drug and counterion were measured in supernatant to calculate Ksp (Solubility product) (Table 5).

cynomolgus monkeys = assay: Injection site reactions after repeat IV bolus dosing (Example 17); assay type: in vivo, cynomolgus monkey; conditions: weekly IV bolus into antecubital vein then saline flush, 30 mM L-aspartic acid, 3.7% mannitol, pH approximately 3.0, non-stoichiometric hydrate form
Description: In vivo studies were conducted in cynomolgus monkeys administered IV doses of Compound A in a vehicle of 30 mM L-aspartic acid, 3.7% mannitol in Sterile Water for Injection, pH approximately 3.0. For these studies, Compound A was used in a non-stoichiometric hydrate form according to Table 6.

[4] = Stated physical properties: water solubility, hygroscopicity; assay type: physicochemical
[5] = Solubility screening up to 5 mg/mL at RT in aqueous acid media (Examples 1 to 6); assay type: physicochemical; conditions: free base; for solubility at 24 h: thermodynamic from solid, read-out: Drug Solubility
Description: Solubility of Compound A was conducted by adding a known quantity of drug to specific volume of aqueous media followed by 24 hour agitation at room temperature (RT).

Stated bioavailability = conditions: oral
[6] = Solubility screening up to 2 mg/mL at RT in aqueous acid media (Examples 7 to 13); assay type: physicochemical; conditions: target up to 2 mg/mL; for solubility at 24 h: thermodynamic from solid, read-out: Drug Solubility

- solubility ([1]; 20 mM L-aspartic acid aqueous media, 22 °C, aqueous buffer, thermodynamic from solid, 20 mM L-aspartic acid media, pH 6.14, 22 ± 1° C., Compound A in excess, read-out: Solubility): 0.7 µg/mL (≈ 0.824 µM)
- solubility ([1]; 20 mM L-aspartic acid aqueous media, 22 °C, aqueous buffer, thermodynamic from solid, 20 mM L-aspartic acid media, pH 7.97, 22 ± 1° C., Compound A in excess, read-out: Solubility): 0.5 µg/mL (≈ 0.588 µM)
- solubility ([1]; 20 mM L-aspartic acid aqueous media, 22 °C, aqueous buffer, thermodynamic from solid, 20 mM L-aspartic acid media, pH 8.87, 22 ± 1° C., Compound A in excess, read-out: Solubility): 0.9 µg/mL (≈ 1.06 µM)
- solubility ([1]; 20 mM L-aspartic acid aqueous medium, aqueous buffer, Aspartic acid, at pH<3, read-out: Highest solubility): 4000 µg/mL (≈ 4710 µM)
- solubility ([1]; 20 mM acetic acid aqueous media, 22 °C, aqueous buffer, thermodynamic from solid, 20 mM acetic acid media, pH 6.42, 22 ± 1° C., Compound A in excess, read-out: Solubility): 0.5 µg/mL (≈ 0.588 µM)
- solubility ([1]; 20 mM acetic acid aqueous media, 22 °C, aqueous buffer, thermodynamic from solid, 20 mM acetic acid media, pH 9.84, 22 ± 1° C., Compound A in excess, read-out: Solubility): 0.5 µg/mL (≈ 0.588 µM)
- solubility ([1]; 20 mM acetic, citric or L-aspartic acid aqueous media, aqueous buffer, at pH 4.0, any of the counter ions (L-aspartic, acetic, citric acid), read-out: Solubility): ≤ 500 µg/mL
- solubility ([1]; 20 mM citric acid aqueous media, 22 °C, aqueous buffer, thermodynamic from solid, 20 mM citric acid media, pH 6.92, 22 ± 1° C., Compound A in excess, read-out: Solubility): 0.5 µg/mL (≈ 0.588 µM)
- solubility ([1]; 20 mM citric acid aqueous media, 22 °C, aqueous buffer, thermodynamic from solid, 20 mM citric acid media, pH 8.82, 22 ± 1° C., Compound A in excess, read-out: Solubility): 0.5 µg/mL (≈ 0.588 µM)
- solubility ([1]; 22 °C, aqueous buffer, thermodynamic from solid, 20 mM L-aspartic acid media, pH 3.05, 22 ± 1° C., Compound A in excess, read-out: Solubility): 5270 µg/mL (≈ 6200 µM)
- solubility ([1]; 22 °C, aqueous buffer, thermodynamic from solid, 20 mM L-aspartic acid media, pH 3.23, 22 ± 1° C., Compound A in excess, read-out: Solubility): 3970 µg/mL (≈ 4670 µM)
- solubility ([1]; 22 °C, aqueous buffer, thermodynamic from solid, 20 mM L-aspartic acid media, pH 3.76, 22 ± 1° C., Compound A in excess, read-out: Solubility): 472 µg/mL (≈ 555 µM)
- solubility ([1]; 22 °C, aqueous buffer, thermodynamic from solid, 20 mM L-aspartic acid media, pH 3.96, 22 ± 1° C., Compound A in excess, read-out: Solubility): 227 µg/mL (≈ 267 µM)
- solubility ([1]; 22 °C, aqueous buffer, thermodynamic from solid, 20 mM L-aspartic acid media, pH 4.18, 22 ± 1° C., Compound A in excess, read-out: Solubility): 68.7 µg/mL (≈ 80.8 µM)
- solubility ([1]; 22 °C, aqueous buffer, thermodynamic from solid, 20 mM L-aspartic acid media, pH 4.54, 22 ± 1° C., Compound A in excess, read-out: Solubility): 16.7 µg/mL (≈ 19.6 µM)
- solubility ([1]; 22 °C, aqueous buffer, thermodynamic from solid, 20 mM L-aspartic acid media, pH 4.93, 22 ± 1° C., Compound A in excess, read-out: Solubility): 5 µg/mL (≈ 5.88 µM)
- solubility ([1]; 22 °C, aqueous buffer, thermodynamic from solid, 20 mM acetic acid media, pH 3.26, 22 ± 1° C., Compound A in excess, read-out: Solubility): 1760 µg/mL (≈ 2070 µM)
- solubility ([1]; 22 °C, aqueous buffer, thermodynamic from solid, 20 mM acetic acid media, pH 3.58, 22 ± 1° C., Compound A in excess, read-out: Solubility): 1090 µg/mL (≈ 1280 µM)
- solubility ([1]; 22 °C, aqueous buffer, thermodynamic from solid, 20 mM acetic acid media, pH 3.71, 22 ± 1° C., Compound A in excess, read-out: Solubility): 810 µg/mL (≈ 953 µM)
- solubility ([1]; 22 °C, aqueous buffer, thermodynamic from solid, 20 mM acetic acid media, pH 3.91, 22 ± 1° C., Compound A in excess, read-out: Solubility): 396 µg/mL (≈ 466 µM)
- solubility ([1]; 22 °C, aqueous buffer, thermodynamic from solid, 20 mM acetic acid media, pH 4.09, 22 ± 1° C., Compound A in excess, read-out: Solubility): 269 µg/mL (≈ 316 µM)
- solubility ([1]; 22 °C, aqueous buffer, thermodynamic from solid, 20 mM acetic acid media, pH 4.64, 22 ± 1° C., Compound A in excess, read-out: Solubility): 24.1 µg/mL (≈ 28.4 µM)
- solubility ([1]; 22 °C, aqueous buffer, thermodynamic from solid, 20 mM acetic acid media, pH 4.85, 22 ± 1° C., Compound A in excess, read-out: Solubility): 10.8 µg/mL (≈ 12.7 µM)
- solubility ([1]; 22 °C, aqueous buffer, thermodynamic from solid, 20 mM acetic acid media, pH 5.48, 22 ± 1° C., Compound A in excess, read-out: Solubility): 2.9 µg/mL (≈ 3.41 µM)
- solubility ([1]; 22 °C, aqueous buffer, thermodynamic from solid, 20 mM citric acid media, pH 2.47, 22 ± 1° C., Compound A in excess, read-out: Solubility): 456 µg/mL (≈ 536 µM)
- solubility ([1]; 22 °C, aqueous buffer, thermodynamic from solid, 20 mM citric acid media, pH 2.61, 22 ± 1° C., Compound A in excess, read-out: Solubility): 195 µg/mL (≈ 229 µM)
- solubility ([1]; 22 °C, aqueous buffer, thermodynamic from solid, 20 mM citric acid media, pH 2.74, 22 ± 1° C., Compound A in excess, read-out: Solubility): 81.6 µg/mL (≈ 96 µM)
- solubility ([1]; 22 °C, aqueous buffer, thermodynamic from solid, 20 mM citric acid media, pH 3.98, 22 ± 1° C., Compound A in excess, read-out: Solubility): 5.4 µg/mL (≈ 6.35 µM)
- solubility ([1]; 22 °C, aqueous buffer, thermodynamic from solid, 20 mM citric acid media, pH 4.94, 22 ± 1° C., Compound A in excess, read-out: Solubility): 4 µg/mL (≈ 4.71 µM)
- solubility ([1]; 22 °C, aqueous buffer, thermodynamic from solid, 20 mM citric acid media, pH 5.91, 22 ± 1° C., Compound A in excess, read-out: Solubility): 1.3 µg/mL (≈ 1.53 µM)
- solubility ([1]; 22 °C, pH 2.9, aqueous buffer, thermodynamic from solid, 20 mM citric acid media, pH 2.90, 22 ± 1° C., Compound A in excess, read-out: Solubility): 41.5 µg/mL (≈ 48.8 µM)
- solubility ([1]; 22 °C, pH 3.4, aqueous buffer, thermodynamic from solid, 20 mM citric acid media, pH 3.40, 22 ± 1° C., Compound A in excess, read-out: Solubility): 8.3 µg/mL (≈ 9.77 µM)
- solubility ([2]; aqueous glucuronic acid (1 mol eq), Glucuronic acid (1 mol eq)): 9000 µg/mL (≈ 10600 µM)
- solubility ([2]; aqueous glutamic acid (1 mol eq), Glutamic acid (1 mol eq)): 4500 µg/mL (≈ 5290 µM)
- solubility ([3]; counterion conc. 8.45 mM): 4070 µg/mL and 4790 µM
- solubility ([3]; counterion conc. 8.70 mM): 3950 µg/mL and 4640 µM
- solubility ([3]; counterion conc. 9.18 mM): 3940 µg/mL and 4640 µM
- solubility ([3]; counterion conc. 9.33 mM): 4140 µg/mL and 4880 µM
- pH max ([3]; counterion conc. 8.45 mM): 3.57
- pH max ([3]; counterion conc. 8.70 mM): 3.57
- pH max ([3]; counterion conc. 9.18 mM): 3.56
- pH max ([3]; counterion conc. 9.33 mM): 3.54
- pHmax ([3]; in L-aspartic acid media, from the Ksp measurements in Table 5): 3.5-3.6
- pKa ([3]; value used for the pHmax calculation, read-out: pKa of drug): 7
- solubility [4]: < 10 µg/mL
- Drug Solubility ([5]; 9.5 mM Lactic acid, solution pH 3.83, stirred 24 h at RT): 3590 µg/mL
- solubility at 24 h ([5]; 9.5 mM lactic acid aqueous medium, pH 3.83, aqueous buffer, 9.5 mM Lactic acid, solution pH 3.83, stirred 24 h at RT): > 3500 µg/mL
- Drug Solubility ([5]; 50 mM Citric acid, solution pH 2.30, stirred 24 h at RT): 1320 µg/mL
- solubility at 24 h ([5]; 50 mM citric acid aqueous medium, pH 2.3, aqueous buffer, 50 mM Citric acid, solution pH 2.30, stirred 24 h at RT): < 2000 µg/mL
- Drug Solubility ([5]; 72.8 mM Methane sulfonic acid, solution pH 1.27, stirred 24 h at RT): 3850 µg/mL
- solubility at 24 h ([5]; 72.8 mM methane sulfonic acid aqueous medium, pH 1.27, aqueous buffer, 72.8 mM Methane sulfonic acid, solution pH 1.27, stirred 24 h at RT): > 3500 µg/mL
- Drug Solubility ([5]; 170 mM Acetic acid, solution pH 3.16, stirred 24 h at RT): 4050 µg/mL
- solubility at 24 h ([5]; 170 mM acetic acid aqueous medium, pH 3.16, aqueous buffer, 170 mM Acetic acid, solution pH 3.16, stirred 24 h at RT): > 3500 µg/mL
- bioavailability (Stated bioavailability): poor oral bioavailability
- Drug Solubility ([6]; 10 mM Acetic acid, solution pH 3.33, stirred 24 h): 1450 µg/mL
- Drug Solubility ([6]; 10 mM Methane sulfonic acid, solution pH 1.99, stirred 24 h): 1780 µg/mL
- solubility at 24 h ([6]; 10 mM acetic acid aqueous medium, pH 3.33, aqueous buffer, 10 mM Acetic acid, solution pH 3.33, stirred 24 h): > 1000 µg/mL
- solubility at 24 h ([6]; 10 mM methane sulfonic acid aqueous medium, pH 1.99, aqueous buffer, 10 mM Methane sulfonic acid, solution pH 1.99, stirred 24 h): > 1000 µg/mL
- Drug Solubility ([6]; 25 mM Aspartic acid, solution pH 2.95, stirred 24 h): 1800 µg/mL
- Drug Solubility ([6]; 25 mM Citric acid, solution pH 2.32, stirred 24 h): 1810 µg/mL
- Drug Solubility ([6]; 25 mM Lactic acid, solution pH 2.57, stirred 24 h): 1830 µg/mL
- Drug Solubility ([6]; 25 mM Tartaric acid, solution pH 2.33, stirred 24 h): 800 µg/mL
- solubility at 24 h ([6]; 25 mM aspartic acid aqueous medium, pH 2.95, aqueous buffer, 25 mM Aspartic acid, solution pH 2.95, stirred 24 h): > 1000 µg/mL
- solubility at 24 h ([6]; 25 mM citric acid aqueous medium, pH 2.32, aqueous buffer, 25 mM Citric acid, solution pH 2.32, stirred 24 h): > 1000 µg/mL
- solubility at 24 h ([6]; 25 mM lactic acid aqueous medium, pH 2.57, aqueous buffer, 25 mM Lactic acid, solution pH 2.57, stirred 24 h): > 1000 µg/mL
- solubility at 24 h ([6]; 25 mM tartaric acid aqueous medium, pH 2.33, aqueous buffer, 25 mM Tartaric acid, solution pH 2.33, stirred 24 h): < 1000 µg/mL
SMILES: CCn1nc(C)cc1C(=O)Nc1nc2cc(C(N)=O)cc(OC)c2n1C/C=C/Cn1c(NC(=O)c2cc(C)nn2CC)nc2cc(C(N)=O)cc(OCCCN3CCOCC3)c21 [Compound A, (E)-1-(4-(5-Carbamoyl-2-(1-ethyl-3-methyl-1H-pyrazole-5-carboxamido)-7-(3-morpholinopropoxy)-1H-benzo[d]imidazol-1-yl)but-2-en-1-yl)-2-(1-ethyl-3-methyl-1H-pyrazole-5-carboxamido)-7-methoxy-1H-benzo[d]imidazole-5-carboxamide]
- Injection site reactions (cynomolgus monkeys): no Compound A-related injection site reactions were observed

Reference: US20220362253A1, “NOVEL PHARMACEUTICAL FORMULATION” (GLAXOSMITHKLINE INTELLECTUAL PROPERTY DEVELOPMENT LIMITED, priority 2018, published 2022)
